ChEMBL document CHEMBL1157056, “Synthesis and anti-inflammatory evaluation of some condensed [4-(3,4-dimethylphenyl)-1(2H)-oxo-phthalazin-2-yl]acetic acid hydrazide” (Eur J Med Chem, 2010)
Activity calls are given as the source filed them. The rule behind the calls is not given here.

Tested on: Rattus norvegicus
Experiment: Antiinflammatory activity in rat at 20 mg/kg, ip after 10 days by sponge implantation method
Format: functional, organism-based
Design: dose 20 mg/kg

SMILES | Activity
Cc1ccc(-c2nn(CC(=O)NNC(=S)NCc3ccccc3)c(=O)c3ccccc23)cc1C | Active
Cc1ccc(-c2nn(CC(=O)N/N=C/NN)c(=O)c3ccccc23)cc1C | Active
CC1=NN(C(=O)Cn2nc(-c3ccc(C)c(C)c3)c3ccccc3c2=O)C(=O)C1 | Active
CCO/C=N/NC(=O)Cn1nc(-c2ccc(C)c(C)c2)c2ccccc2c1=O | Active
Cc1ccc(-c2nn(Cc3n[nH]c(=S)o3)c(=O)c3ccccc23)cc1C | Active
